Assay results taken from patent EP2343074A1, “Use of purine analogues for treating airway diseases” (Merck Serono S.A., priority 2009, dated 2011).

Legend:
BALB/c mice = type: in vivo; settings: female BALB/c mice
Experimental: Female BALB/c mice, aged 10-12 wk, are housed in environmentally controlled specific pathogen-free conditions for 1 wk before study and for the duration of the experiments, which are performed according to J Appl Physiol, VOL 97, 2004, 2258-2265. Accordingly, mice are sensitized with intraperitoneal ovalbumin conjugated to aluminum potassium sulfate, as described in Am J Respir Cell Mol Biol 21: 473-479, 1999. Sensitized mice are subjected to either brief or chronic periods of allergen exposure, as described in Am J Respir Cell Mol Biol 27: 526-535, 2002. Control mice are subjected to the same sensitization protocol but are receiving saline challenges.
Allergen-challenged and control mice are studied at 24 h after the final exposure (at day 21) in the brief allergen-challenge protocol and at week 4 after the final exposure in the chronic allergen-challenge protocol. […]
At day 21 or week 4, respectively, the underlying contributors to airway responsiveness, namely airway reactivity [slope of increase in total respiratory system resistance (Rrs) for a given increase in MCh dose], airway sensitivity (lowest dose of MCh to produce bronchoconstriction), and the maximum inducible bronchoconstriction (maximum Rrs) are measured following brief or chronic allergen challenge. These components of airway responsiveness are measured based on the response of Rrs to saline and increasing (10, 33, 100, and 330 µg/kg) intravenous doses of MCh. Rrs is measured by using the flow interrupter technique, modified for use in mice, and described in Am J Respir Cell Mol Biol 21: 473-479, 1999, Am J Respir Cell Mol Biol 27: 526-535, 2002 and J Appl Physiol 89: 413-421, 2000. Total respiratory system resistance (Rrs) is measured in response to increasing doses of intravenous methacholine (MCh). Using the resulting Rrs-MCh dose-response curve, indexes of airway reactivity (Slope Rrs), airway sensitivity, or the lowest dose to produce bronchoconstriction (Break Rrs) and maximal degree of bronchoconstriction (Max Rrs) are measured. […]

[1] = tested on: patient having asthma with recurring asthma attacks; assay: Treatment of an asthma patient with oral cladribine tablets; type: in vivo; settings: dosage regimen disclosed in WO2006067141
Experimental: A patient having asthma with recurring asthma attacks is treated with oral cladribine tablets and following the dosage regimen disclosed in WO2006067141. As a result, the symptoms of asthma and airway hyperresponsiveness are reduced in this patient.

Nc1nc(Cl)nc2c1ncn2[C@H]1C[C@H](O)[C@@H](CO)O1 [cladribine, 2-chloro-9-(2'-deoxy-beta-D-ribofuranosyl)-adenine]
signs of asthma, increased airway reactivity and maximal bronchoconstriction (BALB/c mice; brief or chronic allergen exposure, cladribine intraperitoneally 15 mg/kg per injection, as compared to the control): beneficial to reduce
asthma related symptoms such as increased bronchoconstriction and allergen-induced development of AHR (BALB/c mice; brief or chronic allergen exposure, cladribine intraperitoneally on days 1, 5 and 9, 15 mg/kg body weight per injection, versus phosphate buffer without cladribine): reduces or abrogates
host toxicity (BALB/c mice; cladribine intraperitoneally on days 1, 5 and 9, 15 mg/kg body weight per injection): little or no host toxicity
symptoms of asthma and airway hyperresponsiveness [1]: reduced
